# Reference: patent US4022842A, “Bibenzyl compounds” (Rikagaku Kenkyusho, priority 1972, dated 1977)
# Like-named read-outs stand apart in the source and are kept apart here.
# Tests used:
# lettuce seeds = experiment: Inhibition of germination of lettuce seeds, 50% inhibition (Example 5, Table 2); type: in vivo, Lactuca sativa L.; conditions: 1% dimethylformamide; for IC50: Lactuca sativa, 48 h
# Protocol: Every compound shown in Table 1 was respectively dissolved at various concentrations in distilled water containing 1% of dimethylformamide, and 3 ml each of the resulting solutions was poured into a culture dish of 6 cm diameter in which 2 filter papers were spread. About 100 seeds (non-dormant ware head seeds) of lettuce (Lactuca sativa L.) were shown in each dish, and they were allowed to stand at 23° C. in the dark for 2 days. Germination percentages were determined and plotted against the concentrations of the compound tested. From the graphs obtained the concentration to give 50% inhibition was determined. The definition of inhibition rate is given in the following formula: [formula] Usually the germination percentage of the untreated control lot was about 95%.
# oats coleoptile = experiment: Growth inhibition in oats coleoptile sections (Example 4, Table 1); set-up: species or system Avena sativa L.; conditions: for IC50: Avena sativa
# Protocol: A compound illustrated in Table 1 was dissolved in dimethylformamide and the solution was diluted to desired concentrations with water containing 2% of sucrose. In control test dimethylformamide was applied in the same amount as that of treated groups. This solvent gives no phytotoxicity to plants to be tested if the content in water is 1% or less. The prepared liquors were poured into culture dishes of 3 cm diameter, the amount of the medium poured into one dish being 2 ml. Sections of 5 mm in length cut from a coleoptiles of oats (Avena sativa L.) which have been grown in the dark were floated on the test media in the culture dishes and cultured at 25° C. for 20 hours in the dark to determine the growth-inhibition degrees.
# In the control group, the coleoptile elongated by about 5 mm during the experiment.
# Bulbils of yam [1] = experiment: Germination (sprouting) of yam bulbils awakened from dormancy (Example 6, Table 3); type: in vivo, Dioscorea batatas Decne.; conditions: 300 μg/ml; 23° C., light of 1800 luxes, 2 weeks; untreated control 80
# Protocol: Bulbils (fleshy buds for breeding formed on stems) of yam (Dioscorea batatas Decne.) were stored at a low temperature of 5° C. for 3 months and awakened from hibernation. These fleshy buds were treated with the agricultural chemical of this invention in the following manner to lead them to hibernation again.
# Every active ingredient compound of this invention shown in the following Table 3 was dissolved emulsified in distilled water containing 1% of dimethylformamide and 0.05% of Tween 20. 25 ml of the resulting liquor was poured into a culture dish of 9 cm diameter in which absorbent cotton was spread, and 30 of bulbis which had been subjected to the above low temperature treatment and awakened from dormancy were sown on the dish and they were allowed to sprout at 23° C. under light of 1800 luxes for 2 weeks.
# seeds of a lettuce = experiment: Germination ratio of lettuce seeds (Example 8, Table 5); type: in vivo, Lactuca sativa L.; conditions: for Germination Ratio: 23° C., 2 days, untreated control 90; for Germination after washing and transplanting: washed with water, transplanted on culture dish free of compound
# Protocol: 4-Hydroxy-2,6,7-trimethoxyphenanthrene and 3,3'-dihydroxy-5-methoxybibenzylwere respectively dissolved in water containing 0.05% of Tween 20 and 1% of dimethylformamide, and each of the resulting solution was poured into a culture dish, 6 cm in diameter, in which 2 layers of filter paper were spread to form a germination bed. 100 seeds of a lettuce (Lactuca sativa L.) were sown on the germination bed and cultivation was conducted for 2 days at 23° C. […] [formula]
# Seedings of lettuce = experiment: Growth inhibition of lettuce seedling stems (hypocotyls) (Example 10, Table 7); type: in vivo, Lactuca sativa L.; conditions: Lactuca sativa, 72 h, read-out: Growth Inhibition Ratio
# Protocol: 4-Hydroxy-2,6,7-trimethoxyphenanthrene or 3,3'-dihydroxy-5-methoxybibenzyl was dissolved in acetone, and the resulting solution was placed in culture dishes in which 2 layers of filter paper were spread so as to give required amounts of the test compound. After the acetone was removed by evaporation, Hoagland's nutrient solution containing 0.05% of Tween 20 was poured into the culture dishes. Seedings of lettuce (Lactuca sativa L.), which had been germinated in a different place, were transplanted to the culture dishes and cultivation was carried out in a light place at 23° C. for 3 days. Then, the lengths of the stems (hypocotyls) were measured to determined the growth inhibition ratio.
# oats coleoptiles = experiment: Growth inhibition of oats coleoptile pieces with indoleacetic acid (Example 9, Table 6); set-up: species or system Avena sativa L.; conditions: Avena sativa, read-out: Growth Inhibition ratio
# Protocol: Oats (Avena sativa L.) were allowed to germinate under a weak red light at 25° C. and 3 days after germination sections of […] in length were cut from coleoptiles about 25 mm in length. 4-Hydroxy-2,6,7-trimethoxyphenanthrene or 3,3-dihydroxy-5-methoxybibenzyl was dissolved in a culture medium comprising 0.1 mg/l of indoleacetic acid, 0.05% of Tween 20 and 2% of sucrose, the balance being water. Ten of the above cut-out coleoptile pieces were flated on the resulting culture medium and cultivation was conducted at 25° C. for 18 hours to examine the growth state and the results shown in Table 6 were obtained.
# bulbils of yam [2] = experiment: Sprouting of yam bulbils in dark or light (Example 7, Table 4); type: in vivo, Discorea batatas Decne.; conditions: 23° C., 20 days
# Protocol: 4-Hydroxy-2,6,7-trimethoxyphenanthrene and 3,3'-dihydroxy-5-methoxybibenzylwere respectively dissolved at various concentrations in water containing 0.05% of Tween 20, and 30 ml each of the resulting solutions were poured into culture dishes of 9 cm in diameter containing 1 g of absorbent cotton.
# Thirty bulbils of yam (Discorea batatas Decne.) which had been awakened from dormancy were planted in each of the so arranged culture dishes, and the germination test was carried out at 23° C. either in the dark or in the light. […]
# Solubility = type: physicochemical; conditions: for Solubility in ordinary solvents: ethanol, acetone, ethyl acetate and ether
# [3] = 23° C., dark, 2 days, read-out: Inhibition of Germination of Lettuce Seeds, Concentration Giving 50% Inhibition
# [4] = 5 mm sections, 25° C., 20 hours, dark, read-out: Growth Inhibition in oats coleoptile (concentration giving 50% inhibition)
# [5] = read-out: Inhibition of Germination of Lettuce Seeds, Concentration Giving 50% Inhibition, 23° C., dark, 2 days
# [6] = 20 h, read-out: Growth Inhibition in oats coleoptile (concentration giving 50% inhibition), 5 mm sections, 25° C., 20 hours, dark
# [7] = 100 mg/l, dark place, untreated control 56
# [8] = 100 mg/l, light place, untreated control 44
# [9] = 300 mg/l, dark place, untreated control 56
# [10] = 300 mg/l, light place, untreated control 44
# [11] = 1000 mg/l, dark place, untreated control 56
compound,measurement,setting,value
"COc1cc(O)c2c(c1)CCc1cc(O)c(OC)cc1-2 [Compound 18, 4,7-dihydroxy-2,6-dimethoxy-9,10-dihydrophenanthrene]",IC50,lettuce seeds; [3],160 µg/mL
same,IC50,oats coleoptile; [4],180 µg/mL
"Oc1c(Cl)cc(Cl)cc1CCc1cc(Cl)cc(Cl)c1O [Compound 6, 3,5,3',5'-tetrachloro-2,2'-dihydroxybibenzyl]",IC50,lettuce seeds; [3],10 µg/mL
same,Germination Ratio,Bulbils of yam [1],15%
same,IC50,oats coleoptile; [4],30 µg/mL
"CC(=O)c1cc2ccccc2c2cc(Cl)ccc12 [Compound 14, 6-chloro-9-acetylphenanthrene]",IC50,lettuce seeds; [5],30 µg/mL
same,Germination Ratio,Bulbils of yam [1],70%
same,IC50,oats coleoptile; [6],70 µg/mL
"COc1cc(CCc2ccc(O)cc2)cc(O)c1OC [Compound 3, 3,4'-dihydroxy-4,5-dimethoxybibenzyl]",IC50,lettuce seeds; [3],120 µg/mL
same,Germination Ratio,Bulbils of yam [1],42%
same,IC50,oats coleoptile; [4],150 µg/mL
"COc1cc(O)cc(CCc2ccccc2)c1 [Compound 1, 3-hydroxy-5-methoxybibenzyl]",IC50,lettuce seeds; [3],60 µg/mL
same,IC50,oats coleoptile; [4],80 µg/mL
"Oc1cc(O)c2c(c1)CCc1cc(O)c(O)cc1-2 [Compound 16, 2,3,5,7-tetrahydroxy-9,10-dihydrophenanthrene]",IC50,lettuce seeds; [3],160 µg/mL
same,IC50,oats coleoptile; [4],150 µg/mL
"COc1cc(OC)c2c(ccc3ccc(O)cc32)c1 [Compound 9, 2,4-dimethoxy-6-hydroxyphenanthrene]",IC50,lettuce seeds; [5],100 µg/mL
same,IC50,oats coleoptile; [6],130 µg/mL
"COc1cc(O)c2c(ccc3cc(OC)c(OC)cc32)c1 [Compound 10, 4-hydroxy-2,6,7-trimethoxyphenanthrene]",Germination Ratio,seeds of a lettuce; 30 mg/l,78%
same,Germination Ratio,seeds of a lettuce; 100 mg/l,43%
same,Germination Ratio,seeds of a lettuce; 300 mg/l,10%
same,Blight of germination-inhibited seeds,seeds of a lettuce; after treatment,not blighted
same,Germination after washing and transplanting,seeds of a lettuce,complete germination
same,inhibition at 30 µg/mL,Seedings of lettuce,13%
same,inhibition at 100 µg/mL,Seedings of lettuce,45%
same,inhibition at 300 µg/mL,Seedings of lettuce,72%
same,inhibition at 30 µg/mL,oats coleoptiles; 18 h,16%
same,inhibition at 100 µg/mL,oats coleoptiles; 18 h,44%
same,inhibition at 300 µg/mL,oats coleoptiles; 18 h,79%
same,IC50,lettuce seeds; [5],60 µg/mL
same,Sprouting Ratio,bulbils of yam [2]; [7],46%
same,Sprouting Ratio,bulbils of yam [2]; [8],14%
same,Sprouting Ratio,bulbils of yam [2]; [9],30%
same,Sprouting Ratio,bulbils of yam [2]; [10],8%
same,Sprouting Ratio,bulbils of yam [2]; [11],23%
same,Germination Ratio,Bulbils of yam [1],45%
same,IC50,oats coleoptile; [6],90 µg/mL
"CC(=O)c1cc(CCc2ccccc2)c(O)cc1O [Compound 4, 4,6-dihydroxy-3-acetyldibenzyl]",IC50,lettuce seeds; [3],90 µg/mL
same,Germination Ratio,Bulbils of yam [1],63%
same,IC50,oats coleoptile; [4],90 µg/mL
"COc1ccc(CCc2cc(O)cc(O)c2)cc1O [Compound 7, 3,3',5'-trihydroxy-4-methoxybibenzyl]",IC50,lettuce seeds; [3],75 µg/mL
same,IC50,oats coleoptile; [4],75 µg/mL
"COc1cc2ccc3cc(O)c(OC)c(OC)c3c2cc1O [Compound 11, 2,6-dihydroxy-3,4,7-trimethoxyphenanthrene]",IC50,lettuce seeds; [3],100 µg/mL
same,Germination Ratio,Bulbils of yam [1],50%
same,IC50,oats coleoptile; [4],100 µg/mL
"COc1cc(OC)c2c(ccc3ccc(O)cc32)c1 [Compound 13, 2,4-dimethoxy-6-hydroxyphenanthrene]","Inhibition of Germination of Lettuce Seeds, Concentration Giving 50% Inhibition","lettuce seeds; 23° C., dark, 2 days",80 µg/mL
same,Germination Ratio,Bulbils of yam [1],60%
same,Growth Inhibition in oats coleoptile (concentration giving 50% inhibition),"oats coleoptile; 5 mm sections, 25° C., 20 hours, dark",90 µg/mL
"COc1cc(O)cc(CCc2cccc(O)c2)c1 [Compound 8, 3,3'-dihydroxy-5-methoxybibenzyl]",Germination Ratio,seeds of a lettuce; 30 mg/l,52%
same,Germination Ratio,seeds of a lettuce; 100 mg/l,26%
same,Germination Ratio,seeds of a lettuce; 300 mg/l,0%
same,Blight of germination-inhibited seeds,seeds of a lettuce; in vivo,not blighted
same,Germination after washing and transplanting,seeds of a lettuce,complete germination
same,inhibition at 30 µg/mL,"Seedings of lettuce; 30 mg/l, stem (hypocotyl) length, light place, 23° C., 3 days",21%
same,inhibition at 100 µg/mL,"Seedings of lettuce; 100 mg/l, stem (hypocotyl) length, light place, 23° C., 3 days",48%
same,inhibition at 300 µg/mL,"Seedings of lettuce; 300 mg/l, stem (hypocotyl) length, light place, 23° C., 3 days",86%
same,inhibition at 30 µg/mL,"oats coleoptiles; 30 mg/l, 0.1 mg/l indoleacetic acid, 25° C., 18 hours",39%
same,inhibition at 100 µg/mL,"oats coleoptiles; 100 mg/l, 0.1 mg/l indoleacetic acid, 25° C., 18 hours",76%
same,inhibition at 300 µg/mL,"oats coleoptiles; 300 mg/l, 0.1 mg/l indoleacetic acid, 25° C., 18 hours",84%
same,Solubility in ordinary solvents,Solubility,Soluble
same,Solubility in hexane,Solubility,insoluble
same,Solubility in water,Solubility,difficultly soluble
same,IC50,lettuce seeds; [3],80 µg/mL
same,Sprouting Ratio,bulbils of yam [2]; [7],56%
same,Sprouting Ratio,bulbils of yam [2]; [8],23%
same,Sprouting Ratio,bulbils of yam [2]; [9],22%
same,Sprouting Ratio,bulbils of yam [2]; [10],18%
same,Sprouting Ratio,bulbils of yam [2]; [11],14%
same,Germination Ratio,Bulbils of yam [1],50%
same,IC50,oats coleoptile; [4],100 µg/mL
"Oc1ccc(CCc2ccccc2)c(O)c1 [Compound 5, 2,4-dihydroxybibenzyl]",IC50,lettuce seeds; [3],90 µg/mL
same,IC50,oats coleoptile; [4],110 µg/mL
"COc1cc2c(cc1O)CCc1cc(OC)c(OC)c(O)c1-2 [Compound 17, 4,7-dihydroxy-2,3,6-trimethoxy-9,10-dihydrophenanthrene]",IC50,lettuce seeds; [3],120 µg/mL
same,Germination Ratio,Bulbils of yam [1],40%
same,IC50,oats coleoptile; [4],200 µg/mL
"COc1cc2ccc3cc(O)c(O)cc3c2c(O)c1OC [Compound 12, 4,6,7-trihydroxy-2,3-dimethoxyphenanthrene]",IC50,lettuce seeds; [5],140 µg/mL
same,IC50,oats coleoptile; [6],120 µg/mL
"CC(=O)c1ccc2c(c1)CCc1cc(O)c(C(C)=O)cc1-2 [Compound 15, 7-hydroxy-2,6-diacetyl-9,10-dihydrophenanthrene]",IC50,lettuce seeds; [3],80 µg/mL
same,IC50,oats coleoptile; [4],130 µg/mL
"COc1cc(CCc2ccccc2O)c(O)c(OC)c1 [Compound 2, 2,2'-dihydroxy-3,5-dimethoxybibenzyl]",Solubility in ordinary solvents,Solubility,Soluble
same,Solubility in hexane,Solubility,insoluble
same,Solubility in water,Solubility,insoluble
same,IC50,lettuce seeds; [3],100 µg/mL
same,IC50,oats coleoptile; [4],100 µg/mL
